Assay results published in BindingDB's records for patent WO2022076764 (BRISTOL-MYERS SQUIBB COMPANY, 2022).

Columns and labels:
[1] = target: T1, N-formyl peptide receptor 2 (Homo sapiens, UniProt P25090)
T1 sequence (P25090 whole entry): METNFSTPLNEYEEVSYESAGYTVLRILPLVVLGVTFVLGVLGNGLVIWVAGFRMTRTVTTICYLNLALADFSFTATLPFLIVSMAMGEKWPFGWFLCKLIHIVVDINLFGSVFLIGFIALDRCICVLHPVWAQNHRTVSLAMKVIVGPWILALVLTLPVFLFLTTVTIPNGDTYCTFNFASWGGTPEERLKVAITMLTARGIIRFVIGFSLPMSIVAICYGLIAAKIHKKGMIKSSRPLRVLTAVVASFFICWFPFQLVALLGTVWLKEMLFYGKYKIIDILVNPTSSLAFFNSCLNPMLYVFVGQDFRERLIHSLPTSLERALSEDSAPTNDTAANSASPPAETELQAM

fMet-Leu-Phe receptor = target: T2, fMet-Leu-Phe receptor (Homo sapiens, UniProt P21462)
T2 sequence (P21462 whole entry): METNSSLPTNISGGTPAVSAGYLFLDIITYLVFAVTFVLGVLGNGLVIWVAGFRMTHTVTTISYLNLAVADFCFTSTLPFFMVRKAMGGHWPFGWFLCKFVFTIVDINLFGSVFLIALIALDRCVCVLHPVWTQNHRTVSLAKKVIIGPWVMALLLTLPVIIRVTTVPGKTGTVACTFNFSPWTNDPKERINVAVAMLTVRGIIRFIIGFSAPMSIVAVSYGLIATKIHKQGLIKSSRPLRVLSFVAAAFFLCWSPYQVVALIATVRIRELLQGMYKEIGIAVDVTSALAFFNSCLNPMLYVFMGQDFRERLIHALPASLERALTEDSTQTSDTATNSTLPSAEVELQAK

SMILES | EC50 [1] [nM] | EC50 (fMet-Leu-Phe receptor) [nM]
COc1cc(F)c(-n2cc(C(F)(F)F)nc2NC(=O)c2ccc(OC(F)F)cc2)c(F)c1 [WO2022076764, Example 43] | 40 | 10
COc1cc(F)c(-n2cc(C(=O)NCc3cc[nH]n3)nc2NC(=O)c2ccc(OC(F)F)cc2)c(F)c1 [WO2022076764, Example 44] | 370 | 48
COc1cc(F)c(-n2cc(C(=O)NCc3cccnc3)nc2NC(=O)c2ccc(OC(F)F)cc2)c(F)c1 [WO2022076764, Example 47] | 110 | 35
COc1cc(F)c(-n2cc(C(=O)NCc3ccncc3)nc2NC(=O)c2ccc(OC(F)F)cc2)c(F)c1 [WO2022076764, Example 48] | 600 | 110
COc1cc(F)c(-n2cc(C(=O)NCC3CCC(O)CC3)nc2NC(=O)c2ccc(OC(F)F)cc2)c(F)c1 (stereo unspecified) [WO2022076764, Example 49] | 750 | 90
COc1cc(F)c(-n2cc(C(=O)N3CCC[C@H]3CO)nc2NC(=O)c2ccc(OC(F)F)cc2)c(F)c1 [WO2022076764, Example 50] | > 10000 | 77
COc1cc(F)c(-n2cc(C(=O)N3CCCC(O)C3)nc2NC(=O)c2ccc(OC(F)F)cc2)c(F)c1 (stereo unspecified) [WO2022076764, Example 51] | 2900 | 83
COc1cc(F)c(-n2cc(C(=O)N3CCC(O)CC3)nc2NC(=O)c2ccc(OC(F)F)cc2)c(F)c1 [WO2022076764, Example 52] | > 10000 | 63
COc1cc(F)c(-n2cc(C(=O)NCCO)nc2NC(=O)c2ccc(OC(F)F)cc2)c(F)c1 [WO2022076764, Example 53] | 4100 | 130
COc1cc(F)c(-n2cc(C(=O)N3CCN(C)CC3)nc2NC(=O)c2ccc(OC(F)F)cc2)c(F)c1 [WO2022076764, Example 55] | > 10000 | 280
COc1cc(F)c(-n2cc(C(=O)N3CC[C@H](O)C3)nc2NC(=O)c2ccc(OC(F)F)cc2)c(F)c1 [WO2022076764, Example 57] | 1900 | 120
COc1cc(F)c(-n2cc(C(=O)N3CCNCC3)nc2NC(=O)c2ccc(OC(F)F)cc2)c(F)c1 [WO2022076764, Example 61] | > 10000 | 130
COc1cc(F)c(-n2cc(C(=O)Nc3cn[nH]c3)nc2NC(=O)c2ccc(OC(F)F)cc2)c(F)c1 [WO2022076764, Example 62] | 830 | 32
COc1cc(F)c(-n2cc(C3CCNCC3)nc2NC(=O)c2ccc(OC(F)F)cc2)c(F)c1 [WO2022076764, Example 63] | 710 | 10
CCNC(=O)N1CCC(c2cn(-c3c(F)cc(OC)cc3F)c(NC(=O)c3ccc(OC(F)F)cc3)n2)CC1 [WO2022076764, Example 66] | 540 | 28
COc1cc(F)c(-n2cc(C3CCN(C(=O)CCO)CC3)nc2NC(=O)c2ccc(OC(F)F)cc2)c(F)c1 [WO2022076764, Example 68] | 110 | 45
COc1cc(F)c(-n2cc(C(=O)N3CCC(CO)CC3)nc2NC(=O)c2ccc(OC(F)F)cc2)c(F)c1 [WO2022076764, Example 69] | 2990 | 86
COc1cc(F)c(-n2cc(C(C)C)nc2NC(=O)c2ccc(OC(F)F)cc2)c(F)c1 [WO2022076764, Example 70] | 970 | 31
COc1cc(F)c(-n2cc(Cc3nnc(C)o3)nc2NC(=O)c2ccc(OC(F)F)cc2)c(F)c1 [WO2022076764, Example 73] | 300 | 23
COc1cc(F)c(-n2cc(C3CCC(O)CC3)nc2NC(=O)c2ccc(OC(F)F)cc2)c(F)c1 (stereo unspecified) [WO2022076764, Example 76] | 240 | 10
COc1cc(F)c(-n2cc(Cc3ccccn3)nc2NC(=O)c2ccc(OC(F)F)cc2)c(F)c1 [WO2022076764, Example 78] | 870 | 56
COc1cc(F)c(-n2cc(C3CNC3)nc2NC(=O)c2ccc(OC(F)F)cc2)c(F)c1 [WO2022076764, Example 79] | 4200 | 81
COc1cc(F)c(-n2cc(-c3ccn[nH]3)nc2NC(=O)c2ccc(OC(F)F)cc2)c(F)c1 [WO2022076764, Example 80] | 500 | 59
COc1cc(F)c(-n2cc(C3CC(N)C3)nc2NC(=O)c2ccc(OC(F)F)cc2)c(F)c1 (stereo unspecified) [WO2022076764, Example 81] | 5400 | 4
COc1cc(F)c(-n2cc(C3CC(NS(C)(=O)=O)C3)nc2NC(=O)c2ccc(OC(F)F)cc2)c(F)c1 (stereo unspecified) [WO2022076764, Example 83] | 400 | 5

Further lines, results first:

EC50 [1] [nM] | EC50 (fMet-Leu-Phe receptor) [nM] | SMILES
57 | 48 | COc1cc(F)c(-n2cc(C(F)(F)C(F)(F)F)nc2NC(=O)c2ccc(OC(F)F)cc2)c(F)c1 [WO2022076764, Example 42]
710 | 14 | COc1ccc(-n2cc(C(=O)N3CCNCC3)nc2NC(=O)c2ccc(OC(F)F)cc2)cc1 [WO2022076764, Example 45]
210 | 27 | COc1ccc(-n2cc(C(=O)NCCCO)nc2NC(=O)c2ccc(OC(F)F)cc2)cc1 [WO2022076764, Example 46]
> 10000 | 320 | COc1cc(F)c(-n2cc(C(=O)N3CCOCC3)nc2NC(=O)c2ccc(OC(F)F)cc2)c(F)c1 [WO2022076764, Example 54]
110 | 89 | COc1cc(F)c(-n2cc(C(=O)NCc3cnc(C)cn3)nc2NC(=O)c2ccc(OC(F)F)cc2)c(F)c1 [WO2022076764, Example 56]
3400 | 170 | COc1cc(F)c(-n2cc(C(=O)N3CCNC(=O)C3)nc2NC(=O)c2ccc(OC(F)F)cc2)c(F)c1 [WO2022076764, Example 58]
2200 | 82 | COc1cc(F)c(-n2cc(C(=O)N3CCC(CO)C3)nc2NC(=O)c2ccc(OC(F)F)cc2)c(F)c1 (stereo unspecified) [WO2022076764, Example 59]
1400 | 56 | COc1cc(F)c(-n2cc(C(=O)NCCCO)nc2NC(=O)c2ccc(OC(F)F)cc2)c(F)c1 [WO2022076764, Example 60]
210 | 11 | COc1ccc(-n2cc(C3CCCNC3)nc2NC(=O)c2ccc(OC(F)F)cc2)cc1 (stereo unspecified) [WO2022076764, Example 64]
320 | 81 | CCS(=O)(=O)N1CCC(c2cn(-c3c(F)cc(OC)cc3F)c(NC(=O)c3ccc(OC(F)F)cc3)n2)CC1 [WO2022076764, Example 65]
83 | 54 | COc1cc(F)c(-n2cc(C3CCN(C(=O)CCC(N)=O)CC3)nc2NC(=O)c2ccc(OC(F)F)cc2)c(F)c1 [WO2022076764, Example 67]
1300 | 46 | COc1cc(F)c(-n2cc(Cc3ccccc3)nc2NC(=O)c2ccc(OC(F)F)cc2)c(F)c1 [WO2022076764, Example 71]
470 | 22 | CCOC(=O)Cc1cn(-c2c(F)cc(OC)cc2F)c(NC(=O)c2ccc(OC(F)F)cc2)n1 [WO2022076764, Example 72]
